Laboratory results taken from patent publication US7902373B2 (Pfizer Inc, priority 2006, dated 2011).

target: human recombinant H-PGDS (Homo sapiens, UniProt O60760); test: Fluorescence intensity h-PGDS TBA enzyme assay; type: biochemical; settings: Examples up to 622 (and 3a, 3b)
Sequence (O60760 whole entry): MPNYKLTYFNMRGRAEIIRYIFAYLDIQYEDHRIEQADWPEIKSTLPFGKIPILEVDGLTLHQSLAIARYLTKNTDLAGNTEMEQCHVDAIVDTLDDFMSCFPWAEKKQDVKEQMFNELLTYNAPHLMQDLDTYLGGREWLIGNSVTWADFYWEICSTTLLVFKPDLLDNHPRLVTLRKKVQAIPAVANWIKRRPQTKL

Row | Structure (SMILES) | IC50
1 | Cn1nc(-c2ccccc2)c(CN2CCC(NC(=O)c3ccc(-c4cccc(F)c4)nc3)CC2)c1Cl [Example 195, N-{1-[(5-Chloro-1-methyl-3-phenyl-1H-pyrazol-4-yl)methyl]piperidin-4-yl}-6-(3-fluorophenyl)nicotinamide] | 0.194 nM
2 | CCN1CCCC1CNC(=O)c1ccc(N2CCC(NC(=O)c3ccc(-c4cccc(F)c4)nc3)CC2)nn1 (centres unmarked) [Example 81, N-[(1-Ethylpyrrolidin-2-yl)methyl]-6-[4-({[6-(3-fluorophenyl)pyridin-3-yl]carbonyl}amino)piperidin-1-yl]pyridazine-3-carboxamide] | 0.947 nM
3 | O=C(NC1CCNCC1)c1ccc(-c2cccc(F)c2)nc1 [Example 36, 6-(3-Fluorophenyl)-N-(piperidin-4-yl)nicotinamide] | 7.11 nM
4 | COc1ccc(CC(C)N2CCC(NC(=O)c3ccc(-c4cccc(F)c4)nc3)CC2)cc1 (centres unmarked) [Example 534, 6-(3-Fluorophenyl)-N-{1-[2-(4-methoxyphenyl)-1-methylethyl]piperidin-4-yl}nicotinamide] | 0.234 nM
5 | COc1cccc(-c2ccc(C(=O)NC3CCN(CC(F)(F)F)CC3)cn2)c1 [Example 14, 6-(3-Methoxyphenyl)-N-(1-(2,2,2-trifluoroethyl)piperidin-4-yl)nicotinamide] | 4.29 nM
6 | CC[C@@H](C)c1nccnc1N1CCC(NC(=O)c2ccc(-c3cccc(F)c3)nc2)CC1 [Example 156, 6-(3-Fluorophenyl)-N-(1-{3-[(1R)-1-methylpropyl]pyrazin-2-yl}piperidin-4-yl)nicotinamide] | 3.15 nM
7 | Cc1ccc(CN2CCC(NC(=O)c3ccc(-c4cccc(F)c4)nc3)CC2)c(F)c1F [Example 318, N-[1-(2,3-Difluoro-4-methylbenzyl)piperidin-4-yl]-6-(3-fluorophenyl)nicotinamide] | 1.18 nM
8 | O=C(NC1CCN(c2ncccc2C(=O)c2nccs2)CC1)c1ccc(-c2cccc(F)c2)nc1 [Example 75, 6-(3-Fluorophenyl)-N-{1-[3-(1,3-thiazol-2-ylcarbonyl)pyridin-2-yl]piperidin-4-yl}nicotinamide] | 0.314 nM
9 | COc1ccc2oc(N3CCC(NC(=O)c4ccc(-c5cccc(F)c5)nc4)CC3)nc2c1 [Example 91, 6-(3-Fluorophenyl)-N-[1-(5-methoxy-13-benzoxazol-2-yl)piperidin-4-yl]nicotinamide] | 0.603 nM
10 | CCOC(=O)N1CCC(NC(=O)c2ccc(-c3cc(F)ccc3F)nc2)CC1 [Example 584, Ethyl 4-({[6-(2,5-Difluorophenyl)pyridine-3-yl]carbonyl}amino)piperidine-1-carboxylate] | 1.38 nM
11 | Cn1ncc(CN2CCC(NC(=O)c3ccc(-c4cccc(F)c4)nc3)CC2)c1-c1ccccc1 [Example 498, 6-(3-Fluorophenyl)-N-{1-[(1-methyl-5-phenyl-1H-pyrazol-4-yl)methyl]piperidin-4-yl}nicotinamide] | 0.3 nM
12 | O=C(NC1CCN(Cc2ccnc(N3CCOCC3)n2)CC1)c1ccc(-c2cccc(F)c2)nc1 [Example 397, 6-(3-Fluorophenyl)-N-{1-[(2-morpholin-4-ylpyrimidin-4-yl)methyl]piperidin-4-yl}nicotinamide] | 1.47 nM
13 | O=C(NC1CCN(c2ccnc(N3CCc4ccccc4C3)n2)CC1)c1ccc(-c2cccc(F)c2)nc1 [Example 58, N-{1-[2-(3,4-Dihydroisoquinolin-2(1H)-yl)pyrimidin-4-yl]piperidin-4-yl}-6-(3-fluorophenyl)nicotinamide] | 8.25 nM
14 | O=C(NC1CCN(C2CCC(=O)N(CC3CCC3)CC2)CC1)c1ccc(-c2cccc(F)c2)nc1 (centres unmarked) [Example 542, N-{1-[1-(Cyclobutylmethyl)-7-oxoazepan-4-yl]piperidin-4-yl}-6-(3-fluorophenyl)nicotinamide] | 1.68 nM
15 | O=C(NC1CCN(Cc2c[nH]c3c(F)c(F)c(F)c(F)c23)CC1)c1ccc(-c2cccc(F)c2)nc1 [Example 349, 6-(3-Fluorophenyl)-N-{1-[(4,5,6,7-tetrafluoro-1H-indol-3-yl)methyl]piperidin-4-yl}nicotinamide] | 2.96 nM
16 | CCn1cc(CN2CCC(NC(=O)c3ccc(-c4cccc(F)c4)nc3)CC2)c(C)n1 [Example 276, N-{1-[(1-Ethyl-3-methyl-1H-pyrazol-4-yl)methyl]piperidin-4-yl}-6-(3-fluorophenyl)nicotinamide] | 0.743 nM
17 | O=C(NC1CCN(Cc2csc(-c3ccccc3)n2)CC1)c1ccc(-c2cccc(F)c2)nc1 [Example 373, 6-(3-Fluorophenyl)-N-{1-[(2-phenyl-1,3-thiazol-4-yl)methyl]piperidin-4-yl}nicotinamide] | 2.36 nM
18 | CC(CCCC(C)(C)O)CCN1CCC(NC(=O)c2ccc(-c3cccc(F)c3)nc2)CC1 (centres unmarked) [Example 336, 6-(3-Fluorophenyl)-N-[1-(7-hydroxy-3,7-dimethyloctyl)piperidin-4-yl]nicotinamide] | 1.82 nM
19 | CCN(CCO)C(=O)c1ccc(N2CCC(NC(=O)c3ccc(-c4cccc(F)c4)nc3)CC2)nc1 [Example 561, N-Ethyl-6-[4-({[6-(3-fluorophenyl)pyridin-3-yl]carbonyl}amino)piperidin-1-yl]-N-(2-hydroxyethyl)nicotinamide] | 1.14 nM

Row | Structure (SMILES) | IC50
20 | CCN(CC)C(=O)c1ccc(N2CCC(NC(=O)c3ccc(-c4cccc(F)c4)nc3)CC2)nc1 [Example 570, N,N-Diethyl-6-[4-({[6-(3-fluorophenyl)pyridin-3-yl]carbonyl}amino)piperidin-1-yl]nicotinamide] | 1.41 nM
21 | CCCn1cc(CN2CCC(NC(=O)c3ccc(-c4cccc(F)c4)nc3)CC2)cn1 [Example 516, 6-(3-Fluorophenyl)-N-{1-[(1-propyl-1H-pyrazol-4-yl)methyl]piperidin-4-yl}nicotinamide] | 2.2 nM
22 | Cc1nn(C)cc1CN1CCC(NC(=O)c2ccc(-c3cccc(F)c3)nc2)CC1 [Example 328, N-{1-[(1,3-Dimethyl-1H-pyrazol-4-yl)methyl]piperidin-4-yl}-6-(3-fluorophenyl)nicotinamide] | 0.566 nM
23 | COc1ccc(-n2ccnc2CN2CCC(NC(=O)c3ccc(-c4cccc(F)c4)nc3)CC2)cc1 [Example 365, 6-(3-Fluorophenyl)-N-(1-{[1-(4-methoxyphenyl)-1H-imidazol-2-yl]methyl}piperidin-4-yl)nicotinamide] | 0.13 nM
24 | O=C(NC1CCN(Cc2cc(F)ccc2F)CC1)c1ccc(-c2cccc(F)c2)nc1 [Example 239, N-[1-(2,5-Difluorobenzyl)piperidin-4-yl]-6-(3-fluorophenyl)nicotinamide] | 0.245 nM
25 | O=C(NC1CCN(Cc2c[nH]c(=O)[nH]c2=O)CC1)c1ccc(-c2cccc(F)c2)nc1 [Example 254, N-{1-[(2,4-Dioxo-1234-tetrahydropyrimidin-5-yl)methyl]piperidin-4-yl}-6-(3-fluorophenyl)nicotinamide] | 1.68 nM
26 | CNC(=O)c1ccc(N2CCC(NC(=O)c3ccc(-c4cccc(F)c4)nc3)CC2)nn1 [Example 80, 6-[4-({[6-(3-Fluorophenyl)pyridin-3-yl]carbonyl}amino)piperidin-1-yl]-N-methylpyridazine-3-carboxamide] | 0.408 nM
27 | Cn1cc(Br)c(CN2CCC(NC(=O)c3ccc(-c4cccc(F)c4)nc3)CC2)n1 [Example 321, N-{1-[(4-Bromo-1-methyl-1H-pyrazol-3-yl)methyl]piperidin-4-yl}-6-(3-fluorophenyl)nicotinamide] | 0.365 nM
28 | COc1cc(CN2CCC(NC(=O)c3ccc(-c4cccc(F)c4)nc3)CC2)cc(Cl)c1O [Example 257, N-[1-(3-Chloro-4-hydroxy-5-methoxybenzyl)piperidin-4-yl]-6-(3-fluorophenyl)nicotinamide] | 0.58 nM
29 | CC(C)OC(=O)Cn1nnnc1N1CCC(NC(=O)c2ccc(-c3cccc(F)c3)nc2)CC1 [Example 100, Isopropyl {5-[4-({[6-(3-fluorophenyl)pyridin-3-yl]carbonyl}amino)piperidin-1-yl]-1H-tetrazol-1-yl}acetate] | 1.53 nM
30 | O=C(NC1CCN(c2cccnn2)CC1)c1cnc(-c2cccc(F)c2)c(Cl)c1 [Example 621, 5-Chloro-6-(3-fluorophenyl)-N-(1-pyridazin-3-ylpiperidin-4-yl)nicotinamide] | 1.59 nM
31 | O=C(NC1CCN(c2nnnn2-c2ccccc2)CC1)c1ccc(-c2cccc(F)c2)nc1 [Example 39, 6-(3-Fluorophenyl)-N-(1-(1-phenyl-1H-tetrazol-5-yl)piperidin-4-yl)nicotinamide] | 0.924 nM
32 | O=C(N[C@@H]1CN(c2ncc3ccc(F)cc3n2)C[C@H]1O)c1ccc(-c2cccc(F)c2)nc1 (relative stereo) [Example 618, Trans-6-(3-fluorophenyl)-N-[1-(7-fluoroquinazolin-2-yl)-4-hydroxypyrrolidin-3-yl]nicotinamide] | 7.33 nM
33 | Cc1cccc(CN2CCC(NC(=O)c3ccc(-c4cccc(F)c4)nc3)CC2)n1 [Example 283, 6-(3-Fluorophenyl)-N-{1-[(6-methylpyridin-2-yl)methyl]piperidin-4-yl}nicotinamide] | 0.5 nM
34 | COc1ccc(-c2cc(N3CCC(NC(=O)c4ccc(-c5cccc(F)c5)nc4)CC3)ncn2)cc1OC [Example 55, N-{1-[6-(3,4-Dimethoxyphenyl)pyrimidin-4-yl]piperidin-4-yl}-6-(3-fluorophenyl)nicotinamide] | 1.67 nM
35 | O=C(NC1CCN(Cc2c(F)c(F)cc(F)c2F)CC1)c1ccc(-c2cccc(F)c2)nc1 [Example 348, 6-(3-Fluorophenyl)-N-[1-(2,3,5,6-tetrafluorobenzyl)piperidin-4-yl]nicotinamide] | 0.612 nM
36 | Cc1cc(N2CCC(NC(=O)c3ccc(-c4cccc(F)c4)nc3)CC2)nc(N2CCCCC2)n1 [Example 116, 6-(3-Fluorophenyl)-N-[1-(6-methyl-2-piperidin-1-ylpyrimidin-4-yl)piperidin-4-yl]nicotinamide] | 2.56 nM
37 | Cc1cnc(CN2CCC(NC(=O)c3ccc(-c4cccc(F)c4)nc3)CC2)cn1 [Example 455, 6-(3-Fluorophenyl)-N-{1-[(5-methylpyrazin-2-yl)methyl]piperidin-4-yl}nicotinamide] | 1.34 nM
38 | CCOc1ncccc1CN1CCC(NC(=O)c2ccc(-c3cccc(F)c3)nc2)CC1 [Example 459, N-{1-[(2-Ethoxypyridin-3-yl)methyl]piperidin-4-yl}-6-(3-fluorophenyl)nicotinamide] | 0.721 nM
